Experimental data reported in patent US12528790B2, “Amide derivative having antiviral activity” (Shionogi & Co., Ltd., priority 2020, dated 2026).
Where two headings read alike, the source gives them in different places.

Assays:
[1] = tested on: RSV A2 strain; test: In vitro CPE (CytoPathic Effect) inhibition effect evaluation test, RSV type A; format: cell-based; details: inhibitory effect against RSV type A (RSV A2 strain), HEp-2 cells, CPE inhibition, read-out: EC50
Summary of the method: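 HEp-2 cells (2.4×10^5 cells/mL, 2% FBS E-MEM) were infected with RSV alongside 3-fold compound dilutions and incubated at 37 °C, 4 days for A2 and 5 days for B Wash/18537. Viable cells quantified by CellTiter-Glo 2.0 luminescence; EC50 by nonlinear regression as 50% CPE inhibition.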

[2] = tested on: RSV B (Wash/18537 strain); test: In vitro CPE (CytoPathic Effect) inhibition effect evaluation test, RSV type B; format: cell-based; details: inhibitory effect against RSV type B, CPE inhibition, read-out: EC50
Procedure: The test sample is diluted in advance to an appropriate concentration with DMSO, and 3-fold series of serial dilutions were prepared on a 384-well plate (0.32 μL/well). HEp-2 cells (CCL-23; ATCC) adjusted at appropriate number (2.4×10^5 cells/mL) in 2% FBS E-MEM (prepared by adding kanamycin and FBS to Eagle's Minimum Essential Medium; Invitrogen) were added at 12.5 μL/well to the 384-well plate previously aliquoted with the test samples. The RSV A2 strain was diluted to an appropriate concentration in a culture medium and added to the 384-well plate containing the test sample at 12.5 μL/well. The culture medium was added additionally to the 384-well plate, and the test was started with 50 μL/well. Control wells were prepared with only virus-free culture medium. The plate was incubated in a 5% CO2 incubator at 37° C. for 4 days, and the plate was then placed at room temperature for 30 minutes. CellTiter-Glo (registered trademark) 2.0 assay (Promega) was added at 15 μL/well, mixed for 30 seconds, and the plate was placed for approximately 1 hour. The luminescent signal was then measured by EnVision (PerkinElmer). The inhibitory effect of the test agents on RSV-induced CPE was calculated as 0% and 100% inhibition rate for each sample concentration based on the level of remaining viable cells by CellTiter-Glo (registered trademark) 2.0, with the EC50 value for each compound calculated by nonlinear regression as the concentration that inhibits RSV-induced CPE by 50%. In the case of evaluation against RSV type B, RSV B (Wash/18537 strain) was infected in the same manner as the type A, cultured for 5 days, and quantitated in the same manner as for the A2 strain.

[3] = human respiratory syncytial virus

| Compound | EC50 [1, 3] [µM] | EC50 [2, 3] [µM] | EC50 [1] [µM] | EC50 [2] [µM] |
| --- | --- | --- | --- | --- |
| O=C(NC1(C(=O)O)C2CC3CC(C2)CC1C3)c1ccc(-c2cn(-c3ccccn3)c3cc(OC4CCN(c5ncccn5)CC4)ccc23)nc1C(F)(F)F (stereo not drawn) [Compound I-175] | < 0.01 | < 0.01 |  |  |
| O=C(NC1(C(=O)O)C2CC3CC(C2)CC1C3)c1cnc(N2CC3(CCOCC3)c3cc(OC4CCN(C5COC5)CC4)ccc32)nc1C(F)(F)F (stereo not drawn) [Compound I-184] | < 0.01 | < 0.01 |  |  |
| CCC1(CC)CN(c2ncc(C(=O)NC3(C(=O)O)C4CC5CC(C4)CC3C5)c(C(C)(F)F)n2)c2ccc(OC3CCN(CC(F)(F)F)CC3)cc21 (stereo not drawn) [Compound I-589] | < 0.01 | < 0.01 |  |  |
| O=C(NC1(C(=O)O)C2CC3CC(C2)CC1C3)c1cnc(N2CC3(CCCCC3)c3cc(CN4CCN(c5ncccn5)CC4)ccc32)nc1C(F)(F)F (stereo not drawn) [Compound I-463] | < 0.01 | 0.1 to 5 |  |  |
| CC(F)(F)c1nc(N2CC3(CCCCC3)c3cc(CN4CCN(c5ncccn5)CC4)ccc32)ncc1C(=O)NC1(C(=O)O)C2CC3CC(C2)CC1C3 (stereo not drawn) [Compound I-464] | < 0.01 | 0.1 to 5 |  |  |
| O=C(NC1(C(=O)O)C2CC3CC(C2)CC1C3)c1cnc(N2CC3(CCCCC3)c3cc(O[C@H]4CCN(c5ncc(F)cn5)C4)ccc32)nc1C(F)(F)F (stereo partly drawn) [Compound I-524] | < 0.01 | 0.1 to 5 |  |  |
| O=C(NC1(C(=O)O)C2CC3CC(C2)CC1C3)c1cnc(N2CC3(CCCCC3)c3cc(OC4CN(CC(F)(F)F)C4)ccc32)nc1C(F)(F)F (stereo not drawn) [Compound I-495] | < 0.01 | < 0.01 |  |  |
| CC(F)(F)c1nc(-c2cn(C3CCC(F)(F)CC3)c3cc(O[C@H]4CC[C@H](N5CC(F)(F)C5)CC4)ccc23)ncc1C(=O)N[C@]1(C(=O)O)[C@@H]2CC3C[C@H]1C[C@@](F)(C3)C2 [Compound I-611] | < 0.01 | < 0.01 |  |  |
| CC(F)(F)c1nc(N2CC3(CCOCC3)c3cc(-n4ncc5c4CCN(CC(F)(F)F)C5)ccc32)ncc1C(=O)NC1(C(=O)O)C2CC3CC(C2)CC1C3 (stereo not drawn) [Compound I-596] | < 0.01 | < 0.01 |  |  |
| CC(F)(F)c1nc(-c2cn(C3CCOCC3)c3cc(O[C@H]4CC[C@H](N5CC(F)(F)C5)CC4)ccc23)ncc1C(=O)NC1(C(=O)O)C2CC3CC(C2)CC1C3 (stereo partly drawn) [Compound I-572] | < 0.01 | < 0.01 |  |  |
| O=C(NC1(C(=O)O)C2CC3CC(C2)CC1C3)c1ccc(-c2cn(C3CCC4(CC3)COC4)c3cc(O[C@H]4CC[C@H](N5CC(F)(F)C5)CC4)ccc23)nc1C(F)(F)F (stereo partly drawn) [Compound I-582] | < 0.01 | < 0.01 |  |  |
| O=C(NC1(C(=O)O)C2CC3CC(C2)CC1C3)c1cnc(N2CC3(CCCCC3)c3cc(O[C@H]4CC[C@@H](N5CC(F)(F)C5)CC4)ccc32)nc1C(F)(F)F (stereo partly drawn) [Compound I-500] | < 0.01 | < 0.01 |  |  |
| CC[C@@H](C)n1cc(-c2ncc(C(=O)NC3(C(=O)O)C4CC5CC(C4)CC3C5)c(C(F)(F)F)n2)c2ccc(O[C@H]3CC[C@H](N4CC(F)(F)C4)CC3)cc21 (stereo partly drawn) [Compound I-613] | < 0.01 | < 0.01 |  |  |
| O=C(NC1(C(=O)O)C2CC3CC(C2)CC1C3)c1cnc(N2CC3(CCOC3)c3cc(OC4CCN(c5ncccn5)CC4)ccc32)nc1C(F)(F)F (racemic) [Compound I-257] | < 0.01 | < 0.01 |  |  |
| O=C(NC1(C(=O)O)C2CC3CC(C2)CC1C3)c1cnc(N2CC3(CCOCC3)c3cc(OC4CCN(C5CC5)CC4)ccc32)nc1C(F)(F)F (stereo not drawn) [Compound I-92] |  |  | < 0.01 | < 0.01 |
| CC(F)(F)c1nc(N2CC3(CCOCC3)c3cc(OC4CCN(c5ncc(F)cn5)CC4)ncc32)ncc1C(=O)N[C@]1(C(=O)O)[C@@H]2CC3C[C@H]1C[C@@](F)(C3)C2 [Compound I-599] | < 0.01 | < 0.01 |  |  |
| O=C(NC1(C(=O)O)C2CC3CC(C2)CC1C3)c1cnc(N2CC3(CCOCC3)c3cc(-n4ncc5c4CCN(CC(F)(F)F)C5)ccc32)nc1C(F)(F)F (stereo not drawn) [Compound I-472] | < 0.01 | < 0.01 |  |  |
| CC(F)(F)c1nc(N2CC3(CCOCC3)c3cc(OC4CCC5(CC4)CN(CC(F)(F)F)C5)ccc32)ncc1C(=O)NC1(C(=O)O)C2CC3CC(C2)CC1C3 (stereo not drawn) [Compound I-549] | < 0.01 | < 0.01 |  |  |
